# Laboratory results reported in US10323018B2 (Millennium Pharmaceuticals, Inc., priority 2015, dated 2019).
# Tests used:
# hNAMPT protein = hNAMPT protein (Homo sapiens (Human), UniProt P43490); assay: NAMPT enzyme assay (TR-FRET/HTRF with BodiPY ligand); type: binding; details: for inhibition at 1 µM: NAMPT inhibition at compound concentration 1 μM, read-out: Percent Inhibition; for IC50: NAMPT inhibition, IC50 range class
# Summary of the method: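 His-tagged hNAMPT with anti-6His-Tb, incubated with compound and BodiPY ligand for 1 h at rt in the dark, in Tris-HCl pH 7.5 buffer with DTT, NaCl, MgCl2 and Tween 20. TR-FRET measured with 320 nm excitation as the 520/486 nm emission ratio. IC50 fitted relative to DMSO controls.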
# PC3 cells = assay: PC3 growth inhibition (Cell-titer glo, 72 hours); type: cell-based; details: Homo sapiens, PC-3, 72 h, read-out: Percent Viability, PC3 cells, compound concentration 1.667 μM, 72 hours
# Summary of the method: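 PC3 cells grown in RPMI1640 plated at 8×10^4 cells/ml, incubated overnight, then exposed to compound diluted in AIM serum-free medium for 72 h at 37 °C, 5% CO2. Luminescence by CellTiter-Glo relative to DMSO controls; % viability at single concentration, GI50 or LD50 from concentration-response curves.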
# Chain of hNAMPT protein (P43490 whole entry): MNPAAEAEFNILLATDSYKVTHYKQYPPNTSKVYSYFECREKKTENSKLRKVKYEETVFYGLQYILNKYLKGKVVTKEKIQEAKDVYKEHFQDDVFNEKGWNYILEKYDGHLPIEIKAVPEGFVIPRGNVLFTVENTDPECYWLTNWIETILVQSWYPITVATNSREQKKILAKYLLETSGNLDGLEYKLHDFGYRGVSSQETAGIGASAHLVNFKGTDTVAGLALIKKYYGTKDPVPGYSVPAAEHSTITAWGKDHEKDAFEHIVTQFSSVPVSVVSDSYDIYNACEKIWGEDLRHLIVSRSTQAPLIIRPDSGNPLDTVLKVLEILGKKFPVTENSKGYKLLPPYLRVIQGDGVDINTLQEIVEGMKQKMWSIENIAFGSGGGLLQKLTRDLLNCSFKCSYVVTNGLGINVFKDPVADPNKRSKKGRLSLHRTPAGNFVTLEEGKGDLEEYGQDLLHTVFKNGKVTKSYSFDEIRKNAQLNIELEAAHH
Compound,inhibition at 1 µM (hNAMPT protein),IC50 (hNAMPT protein),viability at 1.667 µM (PC3 cells)
"CCOc1cc(-c2cccnc2OC)nc2cc(C(=O)NCCc3c[nH]nc3C)ccc12 [Compound I-144, 4-ethoxy-2-(2-methoxypyridin-3-yl)-N-[2-(3-methyl-1H-pyrazol-4-yl)ethyl]quinoline-7-carboxamide]",94%,10 to 50 nM,2%
"CCOc1cc(-c2cnc(OC)cc2C)nc2cc(C(=O)NCCCc3nnc[nH]3)ccc12 [Compound I-145, 4-ethoxy-2-(6-methoxy-4-methyl-3-pyridyl)-N-[3-(4H-1,2,4-triazol-3-yl)propyl]quinoline-7-carboxamide]",86%,> 100 nM,2%
"CCOc1cc(-c2ccnc(C)c2)nc2cc(C(=O)NCCc3c[nH]nc3C)ccc12 [Compound I-146, 4-ethoxy-N-[2-(3-methyl-1H-pyrazol-4-yl)ethyl]-2-(2-methylpyridin-4-yl)quinoline-7-carboxamide]",87%,50 to 100 nM,2%
"CCCc1cc(-c2ccc(F)cc2)nc2cc(C(=O)NCCCc3cc[nH]n3)ccc12 [Compound I-147, 2-(4-fluorophenyl)-4-propyl-N-[3-(1H-pyrazol-3-yl)propyl]quinoline-7-carboxamide]",92%,50 to 100 nM,2%
"O=C(NCCCc1nnc[nH]1)c1ccc2c(-n3ccnc3)cc(-c3ccc(F)cc3)nc2c1 [Compound I-148, 2-(4-fluorophenyl)-4-(1H-imidazol-1-yl)-N-[3-(4H-1,2,4-triazol-3-yl)propyl]quinoline-7-carboxamide]",99%,< 10 nM,1%
"CCOc1cc(-c2ccnc(C)c2)nc2cc(C(=O)NCCCc3ccn[nH]3)ccc12 [Compound I-149, 4-ethoxy-2-(2-methylpyridin-4-yl)-N-[3-(1H-pyrazol-5-yl)propyl]quinoline-7-carboxamide]",96%,10 to 50 nM,2%
"CCOc1cc(-c2cccnc2OC)nc2cc(C(=O)NCCCc3ccn[nH]3)ccc12 [Compound I-150, 4-ethoxy-2-(2-methoxypyridin-3-yl)-N-[3-(1H-pyrazol-5-yl)propyl]quinoline-7-carboxamide]",95%,10 to 50 nM,2%
"CCNc1cc(-c2ccc(F)cc2)nc2cc(C(=O)NCCCc3nnc[nH]3)ccc12 [Compound I-151, 4-(ethylamino)-2-(4-fluorophenyl)-N-[3-(4H-1,2,4-triazol-3-yl)propyl]quinoline-7-carboxamide]",61%,> 100 nM,3%
"CCCc1cc(-c2ccc(F)cc2)nc2cc(C(=O)NCCc3c[nH]nc3C)ccc12 [Compound I-152, 2-(4-fluorophenyl)-N-[2-(3-methyl-1H-pyrazol-4-yl)ethyl]-4-propylquinoline-7-carboxamide]",84%,> 100 nM,2%
"CCOc1cc(-c2ccc(OC)nc2)nc2cc(C(=O)NCCc3cn[nH]c3C)ccc12 [Compound I-153, 4-ethoxy-2-(6-methoxypyridin-3-yl)-N-[2-(5-methyl-1H-pyrazol-4-yl)ethyl]quinoline-7-carboxamide]",98%,10 to 50 nM,2%
"CCOc1cc(-c2ccc(OC)nc2)nc2cc(C(=O)NCCCc3ccn[nH]3)ccc12 [Compound I-154, 4-ethoxy-2-(6-methoxypyridin-3-yl)-N-[3-(1H-pyrazol-5-yl)propyl]quinoline-7-carboxamide]",96%,10 to 50 nM,3%
"CCOc1cc(-c2ccnc(OC)c2)nc2cc(C(=O)NCCCc3ccn[nH]3)ccc12 [Compound I-155, 4-ethoxy-2-(2-methoxypyridin-4-yl)-N-[3-(1H-pyrazol-5-yl)propyl]quinoline-7-carboxamide]",98%,10 to 50 nM,2%
